In patent US20250163104A1, “MACROCYCLIC IMMUNOMODULATORS” (priority 2021, published 2025):
Where a SMILES comes first, the peptide text is derived from it. Bridges are numbered along the chain shown (N, C = ends). [ ]: non-standard residue; d: D form. The star is where a group is joined. Bip = N[C@@H](Cc1ccc(-c2ccccc2)cc1)C(=O)O; Phe(4-CN) = N#Cc1ccc(C[C@H](N)C(=O)O)cc1; Phe(2-F) = N[C@@H](Cc1ccccc1F)C(=O)O; 4Pal = N[C@@H](Cc1ccncc1)C(=O)O; 2Thi = N[C@@H](Cc1cccs1)C(=O)O; Cha = N[C@@H](CC1CCCCC1)C(=O)O; Carboxymethyl = O=C(O)C*; Orn = NCCC[C@H](N)C(=O)O; Dab = NCC[C@H](N)C(=O)O; Dap = NC[C@H](N)C(=O)O

These molecules were tested against T1, human PD-1 / PD-L1-Ig binding on Jurkat cell line over-expressing human PD-1 (Jurkat-PD-1) (Homo sapiens, UniProt Q15116) (assay: Jurkat-PD-1 Cell Binding High-Content Screening Assay (CBA)). Settings: Jurkat-PD-1 cells, PE-labeled PD-L1-Ig 20 nM final; read-out: Jurkat HPD1_PDL1 IC50.
T1 construct: expressed in transfected cells; host or cells: Jurkat
T1 sequence (Q15116 25-288): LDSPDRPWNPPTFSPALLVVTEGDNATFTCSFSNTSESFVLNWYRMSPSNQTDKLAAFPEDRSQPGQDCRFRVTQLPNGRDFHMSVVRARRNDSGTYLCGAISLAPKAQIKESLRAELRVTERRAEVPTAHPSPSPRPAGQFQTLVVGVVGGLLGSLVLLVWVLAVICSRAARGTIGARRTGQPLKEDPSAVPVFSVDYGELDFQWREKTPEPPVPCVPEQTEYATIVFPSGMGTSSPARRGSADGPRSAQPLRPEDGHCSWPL
Format: cell-based
Method in brief: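 Jurkat cells over-expressing human PD-1, in DMEM/10% FCS, pre-incubated with compound 2 h at 37° C. PE-labeled human PD-L1-Ig (20 nM final) added for 1 h; cells fixed in paraformaldehyde with Hoechst 33342 nuclear stain, washed, and bound fluorescence quantified by high-content imaging.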
With `CC(C)C[C@H]1NC(=O)[C@H](CCCN)NC(=O)[C@H](CCC(=O)O)NC(=O)[C@H](Cc2ccc(-c3ccccc3)cc2)NC(=O)[C@H](C(C)C)NC(=O)[C@H](Cc2cccs2)NC(=O)[C@H](CC(=O)O)NC(=O)[C@H](Cc2ccncc2)NC(=O)[C@H](CC(N)=O)NC(=O)CSC[C@@H](C(=O)N[C@@H](C)C(N)=O)NC(=O)[C@H]([C@@H](C)O)NC(=O)[C@H](C(C)C)NC(=O)[C@H](CC2CCCCC2)NC(=O)[C@H](CCN)NC1=O` [Compound 2199] ({CH2CO}-N[4Pal]D[2Thi]V[Bip]E[Orn][dL][Dab][Cha]VTCA-NH2; thioether N-14) the IC50 was 10.6 nM.
For `CC(C)C[C@H]1NC(=O)[C@H](CCCN)NC(=O)[C@H](CCC(=O)O)NC(=O)[C@H](Cc2ccc(-c3ccccc3)cc2)NC(=O)[C@H](C(C)C)NC(=O)[C@H](Cc2cccs2)NC(=O)[C@H](CC(=O)O)NC(=O)[C@H](Cc2ccncc2)NC(=O)[C@H](Cc2ccccc2)NC(=O)CSC[C@@H](C(=O)N[C@@H](C)C(N)=O)NC(=O)[C@H]([C@@H](C)O)NC(=O)[C@H](C(C)C)NC(=O)[C@H](CC2CCCCC2)NC(=O)[C@H](CCN)NC1=O` [Compound 2200] ({CH2CO}-F[4Pal]D[2Thi]V[Bip]E[Orn][dL][Dab][Cha]VTCA-NH2; thioether N-14), the IC50 was 10.2 nM.
For `CC(C)C[C@H]1NC(=O)[C@H](CCCN)NC(=O)[C@H](CCC(=O)O)NC(=O)[C@H](Cc2ccc(-c3ccccc3)cc2)NC(=O)[C@H](C(C)C)NC(=O)[C@H](Cc2cccs2)NC(=O)[C@H](CC(=O)O)NC(=O)[C@H](Cc2ccncc2)NC(=O)[C@H](CN)NC(=O)CSC[C@@H](C(=O)N[C@@H](C)C(N)=O)NC(=O)[C@H]([C@@H](C)O)NC(=O)[C@H](C(C)C)NC(=O)[C@H](CC2CCCCC2)NC(=O)[C@H](CCN)NC1=O` [Compound 2201] ({CH2CO}-[Dap][4Pal]D[2Thi]V[Bip]E[Orn][dL][Dab][Cha]VTCA-NH2; thioether N-14), the IC50 was 22.5 nM.
For `CC(C)C[C@H]1NC(=O)[C@H](CCCN)NC(=O)[C@H](CCC(=O)O)NC(=O)[C@H](Cc2ccc(-c3ccccc3)cc2)NC(=O)[C@H](C(C)C)NC(=O)[C@H](Cc2cccs2)NC(=O)[C@H](CC(=O)O)NC(=O)[C@H](Cc2ccncc2)NC(=O)[C@H](Cc2ccc(OCC(=O)O)cc2)NC(=O)CSC[C@@H](C(=O)N[C@@H](C)C(N)=O)NC(=O)[C@H]([C@@H](C)O)NC(=O)[C@H](C(C)C)NC(=O)[C@H](CC2CCCCC2)NC(=O)[C@H](CCN)NC1=O` [Compound 2202] ({CH2CO}-Y(Carboxymethyl)[4Pal]D[2Thi]V[Bip]E[Orn][dL][Dab][Cha]VTCA-NH2; thioether N-14), the IC50 was 26.5 nM.
`CC(C)C[C@H]1NC(=O)[C@H](CCCN)NC(=O)[C@H](CCC(=O)O)NC(=O)[C@H](Cc2ccc(-c3ccccc3)cc2)NC(=O)[C@H](C(C)C)NC(=O)[C@H](Cc2cccs2)NC(=O)[C@H](CC(=O)O)NC(=O)[C@H](Cc2ccncc2)NC(=O)[C@H](Cc2ccncc2)NC(=O)CSC[C@@H](C(=O)N[C@@H](C)C(N)=O)NC(=O)[C@H]([C@@H](C)O)NC(=O)[C@H](C(C)C)NC(=O)[C@H](CC2CCCCC2)NC(=O)[C@H](CCN)NC1=O` [Compound 2203] ({CH2CO}-[4Pal][4Pal]D[2Thi]V[Bip]E[Orn][dL][Dab][Cha]VTCA-NH2; thioether N-14) gave an IC50 of 18.2 nM.
`CC(C)C[C@H]1NC(=O)[C@H](CCCN)NC(=O)[C@H](CCC(=O)O)NC(=O)[C@H](Cc2ccc(-c3ccccc3)cc2)NC(=O)[C@H](C(C)C)NC(=O)[C@H](Cc2cccs2)NC(=O)[C@H](CC(=O)O)NC(=O)[C@H](Cc2cccs2)NC(=O)[C@H](Cc2ccccc2)NC(=O)CSC[C@@H](C(=O)N[C@@H](C)C(N)=O)NC(=O)[C@H]([C@@H](C)O)NC(=O)[C@H](C(C)C)NC(=O)[C@H](CC2CCCCC2)NC(=O)[C@H](CCN)NC1=O` [Compound 2204] ({CH2CO}-F[2Thi]D[2Thi]V[Bip]E[Orn][dL][Dab][Cha]VTCA-NH2; thioether N-14) gave an IC50 of 24.4 nM.
`CC(C)C[C@H]1NC(=O)[C@H](CCCN)NC(=O)[C@H](CCC(=O)O)NC(=O)[C@H](Cc2ccc(-c3ccccc3)cc2)NC(=O)[C@H](C(C)C)NC(=O)[C@H](Cc2cccs2)NC(=O)[C@H](CC(=O)O)NC(=O)[C@H](Cc2cccs2)NC(=O)[C@H](CN)NC(=O)CSC[C@@H](C(=O)N[C@@H](C)C(N)=O)NC(=O)[C@H]([C@@H](C)O)NC(=O)[C@H](C(C)C)NC(=O)[C@H](CC2CCCCC2)NC(=O)[C@H](CCN)NC1=O` [Compound 2205] ({CH2CO}-[Dap][2Thi]D[2Thi]V[Bip]E[Orn][dL][Dab][Cha]VTCA-NH2; thioether N-14) showed an IC50 of 18.6 nM.
With `CC(C)C[C@H]1NC(=O)[C@H](CCCN)NC(=O)[C@H](CCC(=O)O)NC(=O)[C@H](Cc2ccc(-c3ccccc3)cc2)NC(=O)[C@H](C(C)C)NC(=O)[C@H](Cc2cccs2)NC(=O)[C@H](CC(=O)O)NC(=O)[C@H](Cc2cccs2)NC(=O)[C@H](Cc2ccc(OCC(=O)O)cc2)NC(=O)CSC[C@@H](C(=O)N[C@@H](C)C(N)=O)NC(=O)[C@H]([C@@H](C)O)NC(=O)[C@H](C(C)C)NC(=O)[C@H](CC2CCCCC2)NC(=O)[C@H](CCN)NC1=O` [Compound 2206] ({CH2CO}-Y(Carboxymethyl)[2Thi]D[2Thi]V[Bip]E[Orn][dL][Dab][Cha]VTCA-NH2; thioether N-14) the IC50 was 14.6 nM.
With `CC(C)C[C@H]1NC(=O)[C@H](CCCN)NC(=O)[C@H](CCC(=O)O)NC(=O)[C@H](Cc2ccc(-c3ccccc3)cc2)NC(=O)[C@H](C(C)C)NC(=O)[C@H](Cc2ccccc2F)NC(=O)[C@H](CC(=O)O)NC(=O)[C@H](Cc2ccncc2)NC(=O)[C@H](CC(N)=O)NC(=O)CSC[C@@H](C(=O)N[C@@H](C)C(N)=O)NC(=O)[C@H]([C@@H](C)O)NC(=O)[C@H](C(C)C)NC(=O)[C@H](CC2CCCCC2)NC(=O)[C@H](CCN)NC1=O` [Compound 2207] ({CH2CO}-N[4Pal]D[Phe(2-F)]V[Bip]E[Orn][dL][Dab][Cha]VTCA-NH2; thioether N-14) the IC50 was 34.4 nM.
In the case of `CC(C)C[C@H]1NC(=O)[C@H](CCCN)NC(=O)[C@H](CCC(=O)O)NC(=O)[C@H](Cc2ccc(-c3ccccc3)cc2)NC(=O)[C@H](C(C)C)NC(=O)[C@H](Cc2ccccc2F)NC(=O)[C@H](CC(=O)O)NC(=O)[C@H](Cc2ccncc2)NC(=O)[C@H](Cc2ccccc2)NC(=O)CSC[C@@H](C(=O)N[C@@H](C)C(N)=O)NC(=O)[C@H]([C@@H](C)O)NC(=O)[C@H](C(C)C)NC(=O)[C@H](CC2CCCCC2)NC(=O)[C@H](CCN)NC1=O` [Compound 2208] ({CH2CO}-F[4Pal]D[Phe(2-F)]V[Bip]E[Orn][dL][Dab][Cha]VTCA-NH2; thioether N-14), the IC50 is reported as 30.6 nM.
For `CC(C)C[C@H]1NC(=O)[C@H](CCCN)NC(=O)[C@H](CCC(=O)O)NC(=O)[C@H](Cc2ccc(-c3ccccc3)cc2)NC(=O)[C@H](C(C)C)NC(=O)[C@H](Cc2ccccc2F)NC(=O)[C@H](CC(=O)O)NC(=O)[C@H](Cc2ccncc2)NC(=O)[C@H](CN)NC(=O)CSC[C@@H](C(=O)N[C@@H](C)C(N)=O)NC(=O)[C@H]([C@@H](C)O)NC(=O)[C@H](C(C)C)NC(=O)[C@H](CC2CCCCC2)NC(=O)[C@H](CCN)NC1=O` [Compound 2209] ({CH2CO}-[Dap][4Pal]D[Phe(2-F)]V[Bip]E[Orn][dL][Dab][Cha]VTCA-NH2; thioether N-14), the IC50 was 29.7 nM.
`CC(C)C[C@H]1NC(=O)[C@H](CCCN)NC(=O)[C@H](CCC(=O)O)NC(=O)[C@H](Cc2ccc(-c3ccccc3)cc2)NC(=O)[C@H](C(C)C)NC(=O)[C@H](Cc2ccccc2F)NC(=O)[C@H](CC(=O)O)NC(=O)[C@H](Cc2ccncc2)NC(=O)[C@H](Cc2ccc(OCC(=O)O)cc2)NC(=O)CSC[C@@H](C(=O)N[C@@H](C)C(N)=O)NC(=O)[C@H]([C@@H](C)O)NC(=O)[C@H](C(C)C)NC(=O)[C@H](CC2CCCCC2)NC(=O)[C@H](CCN)NC1=O` [Compound 2210] ({CH2CO}-Y(Carboxymethyl)[4Pal]D[Phe(2-F)]V[Bip]E[Orn][dL][Dab][Cha]VTCA-NH2; thioether N-14) gave an IC50 of 25.1 nM.
`CC(C)C[C@H]1NC(=O)[C@H](CCCN)NC(=O)[C@H](CCC(=O)O)NC(=O)[C@H](Cc2ccc(-c3ccccc3)cc2)NC(=O)[C@H](C(C)C)NC(=O)[C@H](Cc2ccccc2F)NC(=O)[C@H](CC(=O)O)NC(=O)[C@H](Cc2ccncc2)NC(=O)[C@H](Cc2ccncc2)NC(=O)CSC[C@@H](C(=O)N[C@@H](C)C(N)=O)NC(=O)[C@H]([C@@H](C)O)NC(=O)[C@H](C(C)C)NC(=O)[C@H](CC2CCCCC2)NC(=O)[C@H](CCN)NC1=O` [Compound 2211] ({CH2CO}-[4Pal][4Pal]D[Phe(2-F)]V[Bip]E[Orn][dL][Dab][Cha]VTCA-NH2; thioether N-14) showed an IC50 of 20.3 nM.
`CC(C)C[C@H]1NC(=O)[C@H](CCCN)NC(=O)[C@H](CCC(=O)O)NC(=O)[C@H](Cc2ccc(-c3ccccc3)cc2)NC(=O)[C@H](C(C)C)NC(=O)[C@H](Cc2ccccc2F)NC(=O)[C@H](CC(=O)O)NC(=O)[C@H](Cc2ccc(C#N)cc2)NC(=O)[C@H](CC(N)=O)NC(=O)CSC[C@@H](C(=O)N[C@@H](C)C(N)=O)NC(=O)[C@H]([C@@H](C)O)NC(=O)[C@H](C(C)C)NC(=O)[C@H](CC2CCCCC2)NC(=O)[C@H](CCN)NC1=O` [Compound 2212] ({CH2CO}-N[Phe(4-CN)]D[Phe(2-F)]V[Bip]E[Orn][dL][Dab][Cha]VTCA-NH2; thioether N-14) showed an IC50 of 37.6 nM.
`CC(C)C[C@H]1NC(=O)[C@H](CCCN)NC(=O)[C@H](CCC(=O)O)NC(=O)[C@H](Cc2ccc(-c3ccccc3)cc2)NC(=O)[C@H](C(C)C)NC(=O)[C@H](Cc2ccccc2F)NC(=O)[C@H](CC(=O)O)NC(=O)[C@H](Cc2ccc(C#N)cc2)NC(=O)[C@H](Cc2ccccc2)NC(=O)CSC[C@@H](C(=O)N[C@@H](C)C(N)=O)NC(=O)[C@H]([C@@H](C)O)NC(=O)[C@H](C(C)C)NC(=O)[C@H](CC2CCCCC2)NC(=O)[C@H](CCN)NC1=O` [Compound 2213] ({CH2CO}-F[Phe(4-CN)]D[Phe(2-F)]V[Bip]E[Orn][dL][Dab][Cha]VTCA-NH2; thioether N-14) showed an IC50 of 59.2 nM.
